Assay results from article PMC5122374 (Oncotarget, 2016).

Assays:
MDCK cells [1] = test: HGF-induced scattering assay; type: cell-based, canine; conditions: 18 to 24 h
Description: MDCK cells (1.5×10^3 cells per well) were plated in 96-well plates and grown overnight. […] The cells were fixed with 4% paraformaldehyde for 15 min at room temperature and then stained with 0.2% crystal violet. The assay was performed in triplicate. Images were obtained using an Olympus IX51 microscope.

[2] = tested on: SNU-5 human gastric carcinoma xenograft; test: In vivo antitumor activity, SNU-5 xenograft; set-up: species or system nude mice
Description: Female nude mice (4-6 weeks) were housed five or six mice per cage in a specific pathogen-free room with a 12 h light/dark schedule at 25°C ± 1°C and were fed an autoclaved chow diet and water ad libitum. Animal procedures were performed according to institutional ethical guidelines of animal care. […] After that, the well-developed tumors were cut into 1 mm^3 fragments and transplanted s.c. into the right flank of nude mice using a trocar. […] The sizes of the tumors were measured twice per week using microcaliper. The tumor volume (TV) was calculated as: TV = (length×width^2)/2 and the individual relative tumor volume (RTV) was calculated as follows: RTV = Vt/V0, where Vt is the volume on each day, and V0 is the volume at the beginning of the treatment. RTV was shown on indicated days as the median RTV ± SE indicated for groups of mice. […] Tumor specimens were fixed in 4% paraformaldehyde for 24 h. Tumor samples were subsequently paraffin-embedded, and sliced onto microscope slides. […] Staining was detected using the DAB (3, 3'-diaminobenzidine tetrahydrochloride) Liquid System (ZSGB-Bio) and imaged in 5 different fields of each section. Anti-phospho-c-Met and anti-CD31 antibody immunostained sections were counterstained using hematoxylin. Serum levels of human IL-8 were detected by using Human IL-8 Quantikine ELISA Kit (R&D Systems, Inc.) follows the instructions.

MDCK cells [3] = test: HGF-induced cell branching morphogenesis in collagen; type: cell-based, canine; conditions: 5 days
Description: MDCK cells at a density of 2×10^4 cells/mL in DMEM medium were mixed with an equal volume of collagen I solution and plated at 0.1 mL/well in a 96-well culture plate. […] The medium was replaced with fresh growth medium every 2 days. Images were obtained using an Olympus IX51 microscope after 5 days.

[4] = tested on: uPA activity in MDCK cells; test: Urokinase-type plasminogen activator (uPA) assay; type: cell-based, canine; conditions: HGF 100 ng/mL, 24 h, dose-dependent
Description: MDCK cells (1.5-2 ×10^3 cells per well) were plated in 96-well plate and grown overnight. […] The plate was processed for determination of plasminogen activity by first rinsing wells twice with DMEM (without phenol red), then adding 200 μL of reaction buffer [10%(v/v) 3 mM chromozym PL (Roche) in 100 mM glycine, 40%(v/v) 50 mM Tris (pH 8.2), 50%(v/v) 0.05 unit/mL plasminogen (Roche) in DMEM (without phenol red), and 0.2% Tween-20] to each well. After incubation at 37°C, 5% CO2 for 6 h, the absorbance of each well was read at 405 nm.

[5] = tested on: EBC-1 human NSCLC xenograft; test: In vivo antitumor activity, EBC-1 xenograft
Description: . Animal procedures were performed according to institutional ethical guidelines of animal care. […]. After that, the well-developed tumors were cut into 1 mm^3 fragments and transplanted s.c. into the right flank of nude mice using a trocar. When the tumor volume reached 100-200 mm^3, the mice were randomly assigned into vehicle and treatment groups (n = 6 per group). […] The sizes of the tumors were measured twice per week using microcaliper. The tumor volume (TV) was calculated as: TV = (length×width^2)/2 and the individual relative tumor volume (RTV) was calculated as follows: RTV = Vt/V0, where Vt is the volume on each day, and V0 is the volume at the beginning of the treatment. RTV was shown on indicated days as the median RTV ± SE indicated for groups of mice.
Tumor specimens were fixed in 4% paraformaldehyde for 24 h. Tumor samples were subsequently paraffin-embedded, and sliced onto microscope slides. After dewaxing and blocking endogenous peroxidase activity with 3% H2O2, the sections were incubated with 1.5% normal goat serum, followed by overnight incubation at 4°C with anti-phospho-c-Met antibody (Y1234/1235), anti-CD31 antibody or anti-Ki67 antibody. Then, the sections were incubated with biotin-conjugated anti-rabbit IgG for 2 h at 37°C followed by incubating for 1 h with avidin-biotin-peroxidase complex (ABC) using a Vectastain ABC kit(Vector Laboratories). Staining was detected using the DAB (3, 3′-diaminobenzidine tetrahydrochloride) Liquid System (ZSGB-Bio) and imaged in 5 different fields of each section. Anti-phospho-c-Met and anti-CD31 antibody immunostained sections were counterstained using hematoxylin.

NCI-H1993 cells = test: Cell proliferation assay (SRB or MTT); type: cell-based; conditions: Homo sapiens, NCI-H1993, 72 h; read-out: anti-proliferative IC50
Description: (§1) Cells were seeded in 96-well tissue culture plates. On the next day, cells were exposed to various concentrations of compounds and further cultured for 72 h. For Human umbilical vascular endothelial cells (HUVEC) (passage 3) were transferred to basal medium (without growth factor and serum) for 24 h before compounds treated for another 24 h. Finally, cell proliferation was determined using sulforhodamine B (SRB) assay, Thiazolyl Blue Tetrazolium Bromide (MTT; Sigma) assay or Cell Counting Kit (CCK-8) assay. IC50 values were calculated by concentration-response curve fitting using a SoftMax pro-based four-parameter method.

EBC-1 cells [6] = test: Cell proliferation assay (SRB or MTT); type: cell-based; conditions: Homo sapiens, EBC-1, 72 h; read-out: anti-proliferative IC50
Description: as §1

SNU-5 cells = test: Cell proliferation assay (SRB or MTT); type: cell-based; conditions: Homo sapiens, SNU-5, 72 h, read-out: anti-proliferative IC50
Description: as §1

MKN-45 cells [7] = test: Cell proliferation assay (SRB or MTT); type: cell-based; conditions: Homo sapiens, MKN-45, 72 h, read-out: anti-proliferative IC50
Description: as §1

EBC-1 cells [8] = test: Cell cycle analysis by flow cytometry; type: cell-based, human; conditions: EBC-1, 24 h
Description: (§2) After 24 h, cells were collected, fixed and stained with propidium iodide (10 μg/mL) for 30 min, then analyzed using a flow cytometer (FACS Caliber instrument; Becton, Dickinson & Co.). Data were plotted using CellQuest (Becton, Dickinson &Co).

MKN-45 cells [9] = test: Cell cycle analysis by flow cytometry; type: cell-based, human; conditions: MKN-45, 24 h
Description: as §2

[10] = tested on: MMP-9 expression in NCI-H441 cells; test: Gelatin zymography of HGF-induced MMP-9 expression; type: cell-based, human; conditions: NCI-H441, HGF 100 ng/mL, 24 h, dose-dependent
Description: NCI-H441 cells were seeded in a six-well plate (5×10^5 per well) and incubated at 37°C. […] The conditioned medium was collected and centrifuged at 12,000 g for 15 min and concentrated by Micro centrifugal filter device (Millipore Corporation). Then the supernatants were collected and separated on 7.5% SDS-PAGE with 2 mg/mL gelatin incorporated into the gel mixture. Following electrophoresis at 4°C, the gels were rinsed briefly with distilled water and washed three times (15 min each) with 150 ml of 2.5% Triton X-100 solution on a rotary shaker. The gels were then incubated at 37°C for 18 h in 250 ml of 50 mmol/L Tris·HCl (pH 7.5) that contained 10 mmol/L CaCl2, 1 μM ZnCl2, 1% Triton X-100, and 0.02% NaN3. After incubation, the gels were stained with 100 ml of 50% methanol, 10% acetic acid, and 0.1% Coomassie blue R-250 for 3 h, then destained with 50% methanol and 10% acetic acid. Finally, the gels were immersed in distilled water for 20 min and quantified by densitometric analysis using Image Lab software (Bio-Rad Laboratories, Inc.).

NCI-H441 cells [11] = test: HGF-induced Matrigel invasion assay; type: cell-based, human; conditions: NCI-H441, HGF 100 ng/mL, 24 h
Description: (§3) For the migration assay, NCI-H441 cells suspended in serum-free medium (1.5×10^5 cells per well) were seeded in 24-well Transwell plates (pore size, 8 μm; Corning). […] The cultures were maintained for 24 h, followed by the removal of non-motile cells at the top of the filter using a cotton swab. The migrating cells were fixed in paraformaldehyde (4%) and stained with crystal violet (0.1%) for 15 min at room temperature. The dye that was taken up by the cells bound to the membrane was released by the addition of 100 μL 10% acetic acid, and the absorbance of the resulting solution was measured at 595 nm using a multiwell spectrophotometer (SpetraMAX 190, from Molecular Devices, Palo Alto, CA, USA). The assay was performed in triplicate. Images were obtained using an Olympus BX51 microscope.
For the invasion assay, NCI-H441 cells were cultured in the top chambers containing Matrigel-coated membrane inserts (Matrigel, BD). The ensuing procedure was identical to the migration assay. The assay was performed in triplicate. Images were obtained using an Olympus BX51 microscope.

NCI-H441 cells [12] = test: HGF-induced Transwell migration assay; type: cell-based, human; conditions: NCI-H441, HGF 100 ng/mL, 24 h
Description: as §3

[13] = tested on: c-Met phosphorylation and its downstream signaling; test: Immunoblotting of c-Met signaling in HGF-stimulated HUVEC cells; type: cell-based, human; conditions: Simm530 2 h then 100 ng/mL HGF 15 min
Description: Cells were cultured under regular growth conditions to exponential growth phase. […] Those cell lysates were subsequently resolved on 10% SDS-PAGE, and transferred to nitrocellulose membranes. Proteins were probed with specific antibody then subsequently with secondary horseradish peroxidase-conjugated antibody. Finally, immunoreactive proteins were detected using an enhanced chemiluminescence detection reagent (Pierce, Thermo Fisher Scientific Inc.).

[14] = Cell proliferation assay, cell panel (SRB or MTT); type: cell-based; conditions: human, panel of cells with low c-Met expression or activation; read-out: cytotoxicity IC50 values
Description: as §1

Compound: Cn1cc(-c2cnc3nnc(C(F)(F)c4ccc5ncccc5c4)n3n2)cn1 [Simm530]
- effect on HGF-induced cell scattering (MDCK cells [1]): strongly inhibited
- tumor response ([2]; 12.5 mg/kg and 25 mg/kg oral twice daily): tumor stasis and regression
- intratumoral phosphorylation of c-Met ([2]; 2 hours after the final dosage, immunoblotting and IHC): marked and dose-dependent inhibition
- IL-8 plasma level ([2]; human IL-8 ELISA, day 21, P<0.001): significant reduction
- effect on HGF-induced branching morphogenesis (MDCK cells [3]): strongly inhibited
- effect on HGF-induced urokinase activity [4]: significantly inhibited
- tumor response ([5]; 12.5 mg/kg oral twice daily): Tumor stasis
- mice showing no signs of tumor ([5]; 100 mg/kg twice daily): 4 of the 6
- tumor response ([5]; 50 and 100 mg/kg oral twice daily): tumor regression
- intratumoral phosphorylation of c-Met ([5]; 2 hours after the final dosage, immunoblotting): marked and dose-dependent inhibition
- CD31-positive endothelial cells (microvessel density) ([5]; IHC, 2 h after final administration): significant reduction
- tolerance (body weight) ([5]; all tested dosages, data not shown): lack of significant weight loss
- IC50 (NCI-H1993 cells): 0.8 nM
- IC50 (EBC-1 cells [6]): 0.7 nM
- IC50 (SNU-5 cells): 0.9 ± 0.2 nM
- IC50 (MKN-45 cells [7]): 0.7 ± 0.1 nM
- sub-G1 cell population (apoptosis) (EBC-1 cells [8]): no obvious sub-G1 cell population
- effect on cell cycle distribution (EBC-1 cells [8]; dose-dependent, P<0.001): G1/S phase arrest
- sub-G1 cell population (apoptosis) (MKN-45 cells [9]): no obvious sub-G1 cell population
- effect on cell cycle distribution (MKN-45 cells [9]; dose-dependent, P<0.001): G1/S phase arrest
- effect on HGF-induced MMP expression [10]: significantly inhibited
- dose sufficient to block the movement of most cells (invasion) (NCI-H441 cells [11]): 4 nM
- dose sufficient to block the movement of most cells (motility) (NCI-H441 cells [12]): 4 nM
- effect on c-Met phosphorylation and its downstream signaling [13]: potently inhibited
- IC50 at 72 h [14]: > 50000 nM
